Results as given in patent US12043600B2, “Microbiocidal compounds” (SYNGENTA CROP PROTECTION AG, priority 2018, dated 2024).

Legend:
[1] = system: Phaeosphaeria nodorum (Septoria nodorum); assay: Phaeosphaeria nodorum (Septoria nodorum)/Wheat/Leaf Disc Preventative (Glume Blotch); type: in vivo; details: Parastagonospora nodorum, foliar, wheat leaf disc preventative, compared to untreated control
Procedure: Wheat leaf segments cv. Kanzler are placed on agar in a multiwell plate (24-well format) and sprayed with the formulated test compound diluted in water. The leaf disks are inoculated with a spore suspension of the fungus 2 days after application. The inoculated test leaf disks are incubated at 20° C. and 75% rh under a light regime of 12 h light/12 h darkness in a climate cabinet and the activity of a compound is assessed as percent disease control compared to untreated when an appropriate level of disease damage appears in untreated check leaf disks (5-7 days after application).

[2] = system: Monographella nivalis (Microdochium nivale); assay: Monographella nivalis (Microdochium nivale)/Liquid Culture (Foot Rot Cereals); type: cell-based; details: liquid culture, compared to untreated control
Procedure: (§1) Conidia of the fungus from cryogenic storage are directly mixed into nutrient broth (PDB potato dextrose broth). After placing a (DMSO) solution of test compound into a microtiter plate (96-well format), the nutrient broth containing the fungal spores is added.

[3] = system: Mycosphaerella arachidis (Cercospora arachidicola); assay: Mycosphaerella arachidis (Cercospora arachidicola)/Liquid Culture (Early Leaf Spot); type: cell-based; details: liquid culture, compared to untreated control
Procedure: as §1

Plasmopara viticola = assay: whole plant or invertebrate; type: in vivo; details: foliar, read-out: control of Plasmopara viticola
[4] = system: Puccinia recondita f. sp. tritici; assay: Puccinia recondita f. sp. tritici/Wheat/Leaf Disc Curative (Brown Rust); type: in vivo; details: foliar, wheat leaf disc curative, compared to untreated control
Procedure: Wheat leaf segments cv. Kanzler are placed on agar in multiwell plates (24-well format). The leaf segments are inoculated with a spore suspension of the fungus. Plates are stored in darkness at 19° C. and 75% rh. The formulated test compound diluted in water is applied 1 day after inoculation. The leaf segments are incubated at 19° C. and 75% rh under a light regime of 12 h light/12 h darkness in a climate cabinet and the activity of a compound is assessed as percent disease control compared to untreated when an appropriate level of disease damage appears in untreated check leaf segments (6-8 days after application).

[5] = system: Puccinia recondita f. sp. tritici; assay: Puccinia recondita f. sp. tritici/Wheat/Leaf Disc Preventative (Brown Rust); type: in vivo; details: foliar, 200 ppm, wheat leaf disc preventative, compared to untreated control, read-out: control of Puccinia recondita f. sp. tritici
[6] = system: Magnaporthe grisea (Pyricularia oryzae); assay: whole plant or invertebrate; type: in vivo; details: foliar, read-out: control of Magnaporthe grisea
[7] = system: Mycosphaerella graminicola (Septoria tritici); assay: Mycosphaerella graminicola (Septoria tritici)/Liquid Culture (Septoria Blotch); type: cell-based; details: Zymoseptoria tritici; 20 ppm; liquid culture; compared to untreated control
Procedure: Conidia of the fungus from cryogenic storage are directly mixed into nutrient broth (PDB potato dextrose broth). After placing a (DMSO) solution of test compound into a microtiter plate (96-well format), the nutrient broth containing the fungal spores is added. […] The data are presented as the percentage of disease control of each compound for the biological tests against G. lagenarium (Example B3), P. recondita preventative (Example B13), P. teres (Example B15) and M. graminicola (Example B19) as described above. The testing rates of each biological test is specifically described in table C1 below.

[8] = system: Glomerella lagenarium (Colletotrichum lagenarium); assay: Glomerella lagenarium (Colletotrichum lagenarium)/Liquid Culture (Anthracnose); type: cell-based; details: Colletotrichum orbiculare, liquid culture, compared to untreated control
[9] = system: Blumeria graminis f. sp. tritici (Erysiphe graminis f. sp. tritici); assay: Blumeria graminis f. sp. tritici/Wheat/Leaf Disc Preventative (Powdery Mildew on Wheat); type: in vivo; details: foliar, wheat leaf disc preventative, compared to untreated control
Procedure: Wheat leaf segments cv. Kanzler are placed on agar in a multiwell plate (24-well format) and sprayed with the formulated test compound diluted in water. The leaf disks are inoculated by shaking powdery mildew infected plants above the test plates 1 day after application. The inoculated leaf disks are incubated at 20° C. and 60% rh under a light regime of 24 h darkness followed by 12 h light/12 h darkness in a climate chamber and the activity of a compound is assessed as percent disease control compared to untreated when an appropriate level of disease damage appears on untreated check leaf segments (6-8 days after application).

Phytophthora infestans = assay: whole plant or invertebrate; type: in vivo; details: in Solanum lycopersicum, foliar, read-out: control of Phytophthora infestans
[10] = system: Botryotinia fuckeliana (Botrytis cinerea); assay: Botryotinia fuckeliana (Botrytis cinerea)/Liquid Culture (Gray Mould); type: cell-based; details: liquid culture, compared to untreated control
Procedure: Conidia of the fungus from cryogenic storage are directly mixed into nutrient broth (Vogels broth). After placing a (DMSO) solution of test compound into a microtiter plate (96-well format), the nutrient broth containing the fungal spores is added.

Phakopsora pachyrhizi = assay: Phakopsora pachyrhizi/Soybean/Preventative (Soybean Rust); type: in vivo; details: foliar, 288 h, 200 ppm, soybean leaf disc preventative, compared to untreated control, read-out: control of Phakopsora pachyrhizi

| SMILES | pest or weed control at 200 ppm [1] [%] | inhibition of growth at 20 ppm [2] [%] | inhibition of growth at 20 ppm [3] [%] | pest or weed control at 200 ppm (Plasmopara viticola) [%] | pest or weed control at 200 ppm [4] [%] | pest or weed control at 200 ppm [5] [%] | pest or weed control at 200 ppm [6] [%] | inhibition of growth at 20 ppm [7] [%] | melting point [°C] | inhibition of growth at 20 ppm [8] [%] | pest or weed control at 200 ppm [9] [%] | pest or weed control at 200 ppm (Phytophthora infestans) [%] | inhibition of growth at 20 ppm [10] [%] | pest or weed control at 200 ppm (Phakopsora pachyrhizi) [%] |
| --- | --- | --- | --- | --- | --- | --- | --- | --- | --- | --- | --- | --- | --- | --- |
| CO/C=C(\Oc1cc(-n2cc(Cl)c(C(C)C)n2)ccc1C)C(=O)OC [Compound E-11, methyl (Z)-2-[5-(4-chloro-3-isopropyl-pyrazol-1-yl)-2-methyl-phenoxy]-3-methoxy-prop-2-enoate] | ≥ 80 | ≥ 80 | ≥ 80 | ≥ 80 | ≥ 80 | ≥ 80 | ≥ 80 | ≥ 80 | 95 to 100 | – | – | – | – | – |
| CO/C=C(\Oc1cc(-n2ccc(C3CC3(F)F)n2)ccc1C)C(=O)OC (centres unmarked) [Compound E-26, methyl (Z)-2-[5-[3-(2,2-difluorocyclopropyl)pyrazol-1-yl]-2-methyl-phenoxy]-3-methoxy-prop-2-enoate] | ≥ 80 | ≥ 80 | ≥ 80 | ≥ 80 | ≥ 80 | ≥ 80 | ≥ 80 | ≥ 80 | – | ≥ 80 | ≥ 80 | ≥ 80 | – | – |
| CO/C=C(\Oc1cc(-n2ccc(C)n2)c(Cl)cc1C)C(=O)OC [Compound E-28, methyl (Z)-2-[4-chloro-2-methyl-5-(3-methylpyrazol-1-yl)phenoxy]-3-methoxy-prop-2-enoate] | – | ≥ 80 | ≥ 80 | ≥ 80 | ≥ 80 | ≥ 80 | – | ≥ 80 | – | ≥ 80 | ≥ 80 | – | – | – |
| CO/C=C(\Oc1cc(-n2cc(C#N)cn2)ccc1C)C(=O)OC [Compound E-55, methyl (Z)-2-[5-(4-cyanopyrazol-1-yl)-2-methyl-phenoxy]-3-methoxy-prop-2-enoate] | – | ≥ 80 | ≥ 80 | – | – | ≥ 80 | – | ≥ 80 | – | – | – | – | ≥ 80 | – |
| CO/C=C(\Oc1cc(-n2ccc(COC)n2)ccc1C)C(=O)OC [Compound E-77, methyl (Z)-3-methoxy-2-[5-[3-(methoxymethyl)pyrazol-1-yl]-2-methyl-phenoxy]prop-2-enoate] | – | ≥ 80 | ≥ 80 | ≥ 80 | ≥ 80 | ≥ 80 | – | ≥ 80 | 107 to 110 | ≥ 80 | ≥ 80 | – | – | ≥ 50 |
| CO/C=C(\Oc1cc(-n2ccc(C(F)F)n2)ccc1Br)C(=O)OC [Compound E-86, methyl (Z)-2-[2-bromo-5-[3-(difluoromethyl)pyrazol-1-yl]phenoxy]-3-methoxy-prop-2-enoate] | ≥ 80 | ≥ 80 | ≥ 80 | – | – | ≥ 80 | ≥ 80 | ≥ 80 | – | ≥ 80 | ≥ 80 | – | ≥ 80 | – |
| CO/C=C(\Oc1cc(-n2ccc(C(F)(F)F)n2)ccc1Br)C(=O)OC [Compound E-87, methyl (Z)-2-[2-bromo-5-[3-(trifluoromethyl)pyrazol-1-yl]phenoxy]-3-methoxy-prop-2-enoate] | – | ≥ 80 | ≥ 80 | ≥ 80 | – | ≥ 80 | – | ≥ 80 | – | ≥ 80 | ≥ 80 | ≥ 80 | ≥ 80 | ≥ 50 |
| CCc1ccn(-c2ccc(C)c(O/C(=C\OC)C(=O)OC)c2)n1 [Compound E-91, methyl (Z)-2-[5-(3-ethylpyrazol-1-yl)-2-methyl-phenoxy]-3-methoxy-prop-2-enoate] | – | ≥ 80 | ≥ 80 | – | – | ≥ 80 | – | ≥ 80 | – | ≥ 80 | ≥ 80 | – | ≥ 80 | ≥ 50 |
| CO/C=C(\Oc1cc(-n2ccc(C3CC3)n2)ccc1Br)C(=O)OC [Compound E-97, methyl (Z)-2-[2-bromo-5-(3-cyclopropylpyrazol-1-yl)phenoxy]-3-methoxy-prop-2-enoate] | – | ≥ 80 | ≥ 80 | – | – | ≥ 80 | – | ≥ 80 | – | ≥ 80 | ≥ 80 | ≥ 80 | ≥ 80 | ≥ 50 |
| CO/C=C(\Oc1cc(-n2ccc(C)n2)ccc1C)C(=O)OC [Compound E-104, methyl (Z)-3-methoxy-2-[2-methyl-5-(3-methylpyrazol-1-yl)phenoxy]prop-2-enoate] | ≥ 80 | ≥ 80 | ≥ 80 | – | – | ≥ 80 | ≥ 80 | ≥ 80 | – | ≥ 80 | ≥ 80 | – | ≥ 80 | – |
| CO/C=C(\Oc1cc(-n2ccc(C3CCCCC3)n2)cc(C)c1C)C(=O)OC [Compound E-110, methyl (Z)-2-[5-(3-cyclohexylpyrazol-1-yl)-2,3-dimethyl-phenoxy]-3-methoxy-prop-2-enoate] | ≥ 80 | ≥ 80 | ≥ 80 | ≥ 80 | ≥ 80 | ≥ 80 | ≥ 80 | ≥ 80 | 90 to 93 | ≥ 80 | – | ≥ 80 | – | – |
| CO/C=C(\Oc1cc(-n2ccc(C3CCCCC3)n2)c(Cl)cc1C)C(=O)OC [Compound E-115, methyl (Z)-2-[4-chloro-5-(3-cyclohexylpyrazol-1-yl)-2-methyl-phenoxy]-3-methoxy-prop-2-enoate] | – | ≥ 80 | ≥ 80 | – | ≥ 80 | ≥ 80 | – | ≥ 80 | 127 to 129 | ≥ 80 | ≥ 80 | – | – | – |
| CO/C=C(\Oc1cc(-n2ncc(C3CC3)n2)ccc1C)C(=O)OC [Compound F-8, methyl (Z)-2-[5-(4-cyclopropyltriazol-2-yl)-2-methyl-phenoxy]-3-methoxy-prop-2-enoate] | ≥ 80 | ≥ 80 | ≥ 80 | ≥ 80 | – | – | – | ≥ 80 | – | ≥ 80 | ≥ 80 | ≥ 80 | ≥ 80 | – |
